Assays:
[1] = target: T1, Human SLC6A14 (Homo sapiens, UniProt Q9UN76); test: SLC6A14 transport function in X. laevis oocytes (two-microelectrode voltage-clamp); format: cell-based; settings: 1 mM α-MT; currents induced by 100 M (so in the source) leucine, glutamine or arginine
T1 construct: expressed in transfected cells; host or cells: Xenopus laevis oocytes, microinjected with human SLC6A14 cRNA
T1 sequence (Q9UN76 1-642): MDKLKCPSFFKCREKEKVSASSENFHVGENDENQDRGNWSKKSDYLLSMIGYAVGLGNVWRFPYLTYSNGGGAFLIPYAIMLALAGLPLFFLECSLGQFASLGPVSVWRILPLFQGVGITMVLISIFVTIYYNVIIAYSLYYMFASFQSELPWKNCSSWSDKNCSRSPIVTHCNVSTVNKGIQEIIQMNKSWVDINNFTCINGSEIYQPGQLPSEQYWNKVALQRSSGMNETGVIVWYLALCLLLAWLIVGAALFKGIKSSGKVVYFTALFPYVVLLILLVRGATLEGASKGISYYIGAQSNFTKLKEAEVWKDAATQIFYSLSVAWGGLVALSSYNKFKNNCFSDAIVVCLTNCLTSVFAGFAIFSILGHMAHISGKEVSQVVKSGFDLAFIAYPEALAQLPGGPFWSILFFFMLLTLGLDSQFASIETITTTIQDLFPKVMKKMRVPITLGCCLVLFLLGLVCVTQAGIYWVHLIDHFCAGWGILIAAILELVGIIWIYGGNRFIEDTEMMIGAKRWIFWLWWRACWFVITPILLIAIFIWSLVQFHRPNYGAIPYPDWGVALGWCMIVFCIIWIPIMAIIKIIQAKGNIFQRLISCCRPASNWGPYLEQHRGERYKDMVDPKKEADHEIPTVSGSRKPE
Text: FIGS. 3A and 3B. Natactivation kinetics of SLC6A14-mediated transport of leucine (FIG. 3A) and arginine and glutamine (FIG. 3B). Human SLC6A14 was expressed heterologously in X. laevis oocytes by microinjection of cRNA. Four days following injection, oocytes were used for electrophysiological studies using the two-microelectrode voltage-clamp method. […] Since the expression levels varied from oocyte to oocyte resulting in varying magnitudes of amino acid-induced currents, the currents were normalized by taking the magnitude of the currents induced at 100 mM Na^+ as 1 in each oocyte and calculating the magnitude of the currents induced at other concentrations of Na^+ as a fraction of this maximal current. The experiments were done with three different oocytes and the results are given as means±SE. Insets, Hill plots.
FIG. 4. Cl^−-activation kinetics of SLC6A14-mediated transport of leucine, arginine, and glutamine. […] The experiments were done with three different oocytes and the results are given as means±SE.
FIGS. 5A to 5C. Blockade of SLC6A14-mediated transport of leucine (FIG. 5A), glutamine (FIG. 5B), and arginine (FIG. 5C) by α-MT. Oocytes injected with human SLC6A14 cRNA were perifused with 100 µM leucine, 100 μM glutamine, or 100 μM arginine under varying experimental conditions as indicated.
Analysis of SLC6A14 transport function in X. laevis oocytes. SLC6A14-mediated transport of leucine, glutamine, and arginine and its blockade by α-MT were studied using the X. laevis oocyte heterologous expression system as described previously (Hatanaka et al., 2001, J Clin Invest; 107:1035-1043; and Karunakaran et al., 2008, Biochem J; 414:343-355). Human cloned SLC6A14 cDNA was used in these studies.

[2] = tested on: MCF7 cells; test: Analysis of autophagy (LC3 localization, electron microscopy, autophagosomal proteolysis, GFP-LC3); format: cell-based, human; settings: MCF7, α-MT 2.5 mM, 48 h
Protocol: FIGS. 6A to 6C. Effects of SLC6A14 blockade with α-MT in breast cancer cells. In FIG. 6A, MCF10A (a non-malignant mammary epithelial cell line), MCF7 (an ER-positive breast cancer cell line), and MB231 (an ER-negative breast cancer cell line) cells were treated with or without 2.5 mM α-MT for 24, 48, or 72 h and then used for analysis of asparagine synthetase (ASNS) and CHOP mRNA levels. In FIG. 6B, MCF7, MB231 and MCF10A cells were treated with or without 2.5 mM α-MT for 48 h and then used for immunocytochemical analysis of the constitutively expressed LC-3. In FIG. 6C, MCF7 cells were treated with (“b” and “c”) or without (“a”) α-MT (2.5 mM) for 48 h and then used for electron microscopy. Arrows indicate sequestration of cytoplasm and organelles in pre-autophagosomes and autophagosome, and the asterisk indicates condensed chromatin. N, nucleus.
FIGS. 7A and 7B. Induction of autophagy in MCF7 cells by α-MT. […] The concentrations of α-MT and 3-MA, when present, were 2.5 mM and 10 mM. The treatment time was 48 h. The extent of proteolysis was determined by the radioactivity present in the protein-free supernatant. […] In FIG. 7B, MCF7 cells were transfected with an GFP-LC3 expression plasmid, and 24 h later, the cells were treated with or without α-MT (2.5 mM) in the presence or absence of 3-MA (10 mM) for 48 h. At the end of the treatment, cells were fixed, and the percent of cells with punctate localization of the ectopically expressed GFP-LC3 was quantified. “a” represents compared to control; “b” represents compared to treatment with α-MT alone; and “c” represents compared to treatment with […]; *, p<0.001.
Analysis of autophagy. Autophagy was analyzed as described previously (Periyasamy-Thandavan et al., 2010, Autophagy; 6:19-35; and Samaddar et al., 2008, Mol Cancer Ther; 7:2977-2987) by monitoring the localization pattern of constitutively expressed LC3 as well as that of ectopically expressed GFP-LC3. In the case of the constitutively expressed LC3, cells were treated without or with α-MT, and then used for immunocytochemical analysis of LC3 localization pattern. For ectopically expressed LC3, cells were transfected with a GFP-LC3 expression plasmid. Briefly, cells were plated on a coverslip to reach ˜50% confluence and transfection of these cells was done with 1 μg of the plasmid using FuGENE transfection reagent (Roche, Nutley, N.J.). […] At the end of the treatment, cells were fixed with 4% paraformaldehyde and examined by fluorescence microscopy to count the number of cells with punctate GFP-LC3. Autophagosomal proteolysis was quantified as described previously (Periyasamy-Thandavan et al., 2010, Autophagy; 6:19-35). […]

Compound: CC(N)(Cc1c[nH]c2ccccc12)C(=O)O (racemic) [α-MT, α-methyl-DL-tryptophan]
- blockade of amino acid-induced inward currents [1]: blocked
- autophagosomal proteolysis of 14C-labeled proteins [2]: increased proteolysis
- autophagy (punctate localization of constitutively expressed LC3, autophagosomes in electron microscopy) [2]: induced autophagy

Reference: patent US20140024663A1, “ATB(0,+) AMINO ACID TRANSPORTER AS A DRUG TARGET FOR TREATMENT OF ESTROGEN RECEPTOR-POSITIVE BREAST CANCER” (GEORGIA HEALTH SCIENCES UNIVERSITY RESEARCH INSTITUTE, INC., priority 2012, published 2014)
